# Reference: patent US20250049748A1, “ANALOGS OF 4-BROMO-2,5-DIMETHOXYPHENETHYLAMINE” (Terran Biosciences Inc., priority 2021, published 2025)
# Values joined by “and” are separate entries in the source; they are usually repeats but may differ in a detail not shown here. Identical values can stand only once.
# Assay: Pharmacokinetic study in rats: plasma 2C-B after IV/PO 2C-B or PO 2C-B prodrugs
# Conditions: for Tlast / AUC0-inf / AUC0-last / Cmax / T1/2 / AUC(0-t) / half-life / Tmax: analyte 2C-B in plasma; for AUC(0-t): AUC0-last
# [1] = 2C-B dosed IV 1 mg/kg, male SD rats, individual animals, 1 mg/kg
# [2] = 2C-B dosed oral 5 mg/kg, male SD rats, individual animals, 5 mg/kg
# [3] = 2C-B dosed oral 10 mg/kg, male SD rats, individual animals, 10 mg/kg
# [4] = male, Sprague-Dawley, rat, plasma, po, 5 mg/kg, 2C-B dosed oral 5 mg/kg, male SD rats, mean
# [5] = oral dosing of 2C-B prodrug, rat, time 0.500 h, individual animal
# [6] = oral dosing of 2C-B prodrug, rat, time 0.500 h, mean
# [7] = oral dosing of 2C-B prodrug, rat, time 1.00 h, individual animal
# [8] = oral dosing of 2C-B prodrug, rat, time 1.00 h, mean
# [9] = oral dosing of 2C-B prodrug, rat, time 2.00 h, individual animal
# [10] = oral dosing of 2C-B prodrug, rat, time 2.00 h, mean
# [11] = oral dosing of 2C-B prodrug, rat, time 4.00 h, individual animal
# [12] = oral dosing of 2C-B prodrug, rat, time 4.00 h, mean
# [13] = oral dosing of 2C-B prodrug, rat, time 7.00 h, individual animal
# [14] = oral dosing of 2C-B prodrug, rat, time 7.00 h, mean
# [15] = oral dosing of 2C-B prodrug, rat, time 24.0 h, individual animal
# [16] = oral dosing of 2C-B prodrug, rat, time 24.0 h, mean
structure (smiles),measurement,setting,value
"COc1cc(CCN)c(OC)cc1Br [Example 2C-B, 4-bromo-2,5-dimethoxyphenethylamine]",Tlast,"2C-B dosed IV 1 mg/kg, male SD rats, Mean* row (median calculated for Tlast)",2 h
same,Tlast,"2C-B dosed IV 1 mg/kg, male SD rats, individual animals",2 h
same,AUC0-inf,[1],72.0 ng·h/mL and 57.8 ng·h/mL
same,AUC0-last,[1],71.0 ng·h/mL and 56.8 ng·h/mL
same,Cmax,[1],85.0 ng/mL and 68.8 ng/mL
same,T1/2,[1],20.3 min and 22.2 min
same,AUC0-inf,[2],92.0 ng·h/mL and 115 ng·h/mL and 193 ng·h/mL
same,AUC0-last,[2],69.0 ng·h/mL and 103 ng·h/mL and 159 ng·h/mL
same,Cmax,[2],29.5 ng/mL and 53.5 ng/mL
same,T1/2,[2],251 min and 454 min and 732 min
same,Tlast,[2],7.00 h and 24.0 h (2×)
same,Tlast,"2C-B dosed oral 5 mg/kg, male SD rats, mean",18.3 h
same,Tlast,"2C-B dosed oral 10 mg/kg, male SD rats, Mean* row (median calculated for Tlast)",7.0 h
same,AUC0-inf,[3],66.8 ng·h/mL and 26.1 ng·h/mL
same,AUC0-last,[3],40.9 ng·h/mL and 64.3 ng·h/mL and 23.8 ng·h/mL
same,Cmax,[3],29.4 ng/mL and 37.9 ng/mL and 11.3 ng/mL
same,T1/2,[3],134 min
same,Tlast,[3],2 h and 7 h (2×)
same,AUC0-inf,"male, Sprague-Dawley, rat, plasma, iv, 1 mg/kg, AUC0-inf, 2C-B dosed IV 1 mg/kg, male SD rats, individual animals",68.6 ng·h/mL
same,AUC0-inf,"male, Sprague-Dawley, rat, plasma, iv, 1 mg/kg, AUC0-inf, 2C-B dosed IV 1 mg/kg, male SD rats, mean of 3 animals",66.1 ng·h/mL
same,AUC(0-t),"male, Sprague-Dawley, rat, plasma, iv, 1 mg/kg, 2C-B dosed IV 1 mg/kg, male SD rats, individual animals",65.6 ng·h/mL
same,AUC(0-t),"male, Sprague-Dawley, rat, plasma, iv, 1 mg/kg, 2C-B dosed IV 1 mg/kg, male SD rats, mean of 3 animals",64.5 ng·h/mL
same,Cmax,"male, Sprague-Dawley, rat, plasma, iv, 1 mg/kg, Cmax, 2C-B dosed IV 1 mg/kg, male SD rats, individual animals",72 ng/mL
same,Cmax,"male, Sprague-Dawley, rat, plasma, iv, 1 mg/kg, Cmax, 2C-B dosed IV 1 mg/kg, male SD rats, mean of 3 animals",75.3 ng/mL
same,half-life,"male, Sprague-Dawley, rat, plasma, iv, 1 mg/kg, T1/2, 2C-B dosed IV 1 mg/kg, male SD rats, individual animals",27.3 min
same,half-life,"male, Sprague-Dawley, rat, plasma, iv, 1 mg/kg, T1/2, 2C-B dosed IV 1 mg/kg, male SD rats, mean of 3 animals",23.3 min
same,AUC0-inf,"male, Sprague-Dawley, rat, plasma, po, 5 mg/kg, AUC0-inf, 2C-B dosed oral 5 mg/kg, male SD rats, mean",133 ng·h/mL
same,AUC(0-t),[4],110 ng·h/mL
same,Cmax,"male, Sprague-Dawley, rat, plasma, po, 5 mg/kg, Cmax, 2C-B dosed oral 5 mg/kg, male SD rats, individual animals",30.1 ng/mL
same,Cmax,"male, Sprague-Dawley, rat, plasma, po, 5 mg/kg, Cmax, 2C-B dosed oral 5 mg/kg, male SD rats, mean",37.7 ng/mL
same,half-life,"male, Sprague-Dawley, rat, plasma, po, 5 mg/kg, T1/2, 2C-B dosed oral 5 mg/kg, male SD rats, mean",479 min
same,Tmax,"male, Sprague-Dawley, rat, plasma, po, 5 mg/kg, 2C-B dosed oral 5 mg/kg, male SD rats, individual animals",30 min
same,Tmax,[4],30 min
same,AUC0-inf,"male, Sprague-Dawley, rat, plasma, po, 10 mg/kg, AUC0-inf, 2C-B dosed oral 10 mg/kg, male SD rats, mean",46.5 ng·h/mL
same,AUC(0-t),"male, Sprague-Dawley, rat, plasma, po, 10 mg/kg, 2C-B dosed oral 10 mg/kg, male SD rats, mean",43 ng·h/mL
same,Cmax,"male, Sprague-Dawley, rat, plasma, po, 10 mg/kg, Cmax, 2C-B dosed oral 10 mg/kg, male SD rats, mean",26.2 ng/mL
same,half-life,"male, Sprague-Dawley, rat, plasma, po, 10 mg/kg, T1/2, 2C-B dosed oral 10 mg/kg, male SD rats, individual animals",99 min
same,half-life,"male, Sprague-Dawley, rat, plasma, po, 10 mg/kg, T1/2, 2C-B dosed oral 10 mg/kg, male SD rats, mean",116 min
same,Tmax,"male, Sprague-Dawley, rat, plasma, po, 10 mg/kg, 2C-B dosed oral 10 mg/kg, male SD rats, Mean* row (median calculated for Tmax)",30 min
same,Tmax,"male, Sprague-Dawley, rat, plasma, po, 10 mg/kg, 2C-B dosed oral 10 mg/kg, male SD rats, individual animals",60 min
"COc1cc(CCNC(C)=O)c(OC)cc1Br [Example 4, N-(4-bromo-2,5-dimethoxyphenethyl)acetamide]",Plasma Concentrations of metabolite 2C-B Following Oral Dosing,"prodrug oral 10 mg/kg, male SD rats, time 0.500 h, individual animals",BLQ (BLQ: Below Lower Limit of Quanification (0.5 ng/mL))
same,Plasma Concentrations of metabolite 2C-B Following Oral Dosing,"prodrug oral 10 mg/kg, male SD rats, time 0.500 h, mean",BLQ (BLQ: Below Lower Limit of Quanification (0.5 ng/mL))
same,Plasma Concentrations of metabolite 2C-B Following Oral Dosing,"prodrug oral 10 mg/kg, male SD rats, time 1.00 h, individual animals",BLQ (BLQ: Below Lower Limit of Quanification (0.5 ng/mL))
same,Plasma Concentrations of metabolite 2C-B Following Oral Dosing,"prodrug oral 10 mg/kg, male SD rats, time 1.00 h, mean",BLQ (BLQ: Below Lower Limit of Quanification (0.5 ng/mL))
same,Plasma Concentrations of metabolite 2C-B Following Oral Dosing,"prodrug oral 10 mg/kg, male SD rats, time 2.00 h, individual animals",BLQ (BLQ: Below Lower Limit of Quanification (0.5 ng/mL))
same,Plasma Concentrations of metabolite 2C-B Following Oral Dosing,"prodrug oral 10 mg/kg, male SD rats, time 2.00 h, mean",BLQ (BLQ: Below Lower Limit of Quanification (0.5 ng/mL))
same,Plasma Concentrations of metabolite 2C-B Following Oral Dosing,"prodrug oral 10 mg/kg, male SD rats, time 4.00 h, individual animals",BLQ (BLQ: Below Lower Limit of Quanification (0.5 ng/mL))
same,Plasma Concentrations of metabolite 2C-B Following Oral Dosing,"prodrug oral 10 mg/kg, male SD rats, time 4.00 h, mean",BLQ (BLQ: Below Lower Limit of Quanification (0.5 ng/mL))
same,Plasma Concentrations of metabolite 2C-B Following Oral Dosing,"prodrug oral 10 mg/kg, male SD rats, time 7.00 h, individual animals",BLQ (BLQ: Below Lower Limit of Quanification (0.5 ng/mL))
same,Plasma Concentrations of metabolite 2C-B Following Oral Dosing,"prodrug oral 10 mg/kg, male SD rats, time 7.00 h, mean",BLQ (BLQ: Below Lower Limit of Quanification (0.5 ng/mL))
same,Plasma Concentrations of metabolite 2C-B Following Oral Dosing,"prodrug oral 10 mg/kg, male SD rats, time 24.0 h, individual animals",BLQ (BLQ: Below Lower Limit of Quanification (0.5 ng/mL))
same,Plasma Concentrations of metabolite 2C-B Following Oral Dosing,"prodrug oral 10 mg/kg, male SD rats, time 24.0 h, mean",BLQ (BLQ: Below Lower Limit of Quanification (0.5 ng/mL))
"COc1cc(CCNC(=O)C(F)(F)F)c(OC)cc1Br [Example 5, N-(4-bromo-2,5-dimethoxyphenethyl)-2,2,2-trifluoroacetamide]",Plasma Concentrations of metabolite 2C-B Following Oral Dosing,[5],BLQ (BLQ: Below Lower Limit of Quanification (0.5 ng/mL))
same,Plasma Concentrations of metabolite 2C-B Following Oral Dosing,[6],BLQ (BLQ: Below Lower Limit of Quanification (0.5 ng/mL))
same,Plasma Concentrations of metabolite 2C-B Following Oral Dosing,[7],BLQ (BLQ: Below Lower Limit of Quanification (0.5 ng/mL))
same,Plasma Concentrations of metabolite 2C-B Following Oral Dosing,[8],BLQ (BLQ: Below Lower Limit of Quanification (0.5 ng/mL))
same,Plasma Concentrations of metabolite 2C-B Following Oral Dosing,[9],BLQ (BLQ: Below Lower Limit of Quanification (0.5 ng/mL))
same,Plasma Concentrations of metabolite 2C-B Following Oral Dosing,[10],BLQ (BLQ: Below Lower Limit of Quanification (0.5 ng/mL))
same,Plasma Concentrations of metabolite 2C-B Following Oral Dosing,[11],BLQ (BLQ: Below Lower Limit of Quanification (0.5 ng/mL))
same,Plasma Concentrations of metabolite 2C-B Following Oral Dosing,[12],BLQ (BLQ: Below Lower Limit of Quanification (0.5 ng/mL))
same,Plasma Concentrations of metabolite 2C-B Following Oral Dosing,[13],BLQ (BLQ: Below Lower Limit of Quanification (0.5 ng/mL))
same,Plasma Concentrations of metabolite 2C-B Following Oral Dosing,[14],BLQ (BLQ: Below Lower Limit of Quanification (0.5 ng/mL))
same,Plasma Concentrations of metabolite 2C-B Following Oral Dosing,[15],BLQ (BLQ: Below Lower Limit of Quanification (0.5 ng/mL))
same,Plasma Concentrations of metabolite 2C-B Following Oral Dosing,[16],BLQ (BLQ: Below Lower Limit of Quanification (0.5 ng/mL))
"COc1cc(CCNC(=O)CN(C)C(=O)[C@H](Cc2ccccc2)NC(=O)OC(C)(C)C)c(OC)cc1Br [Example 10, tert-butyl (S)-(1-((2-((4-bromo-2,5-dimethoxyphenethyl)amino)-2-oxoethyl)(methyl)amino)-1-oxo-3-phenylpropan-2-yl)carbamate]",Plasma Concentrations of metabolite 2C-B Following Oral Dosing,[5],BLQ (BLQ: Below Lower Limit of Quanification (0.5 ng/mL))
same,Plasma Concentrations of metabolite 2C-B Following Oral Dosing,[6],BLQ (BLQ: Below Lower Limit of Quanification (0.5 ng/mL))
same,Plasma Concentrations of metabolite 2C-B Following Oral Dosing,[7],BLQ (BLQ: Below Lower Limit of Quanification (0.5 ng/mL))
same,Plasma Concentrations of metabolite 2C-B Following Oral Dosing,[8],BLQ (BLQ: Below Lower Limit of Quanification (0.5 ng/mL))
same,Plasma Concentrations of metabolite 2C-B Following Oral Dosing,[9],BLQ (BLQ: Below Lower Limit of Quanification (0.5 ng/mL))
same,Plasma Concentrations of metabolite 2C-B Following Oral Dosing,[10],BLQ (BLQ: Below Lower Limit of Quanification (0.5 ng/mL))
same,Plasma Concentrations of metabolite 2C-B Following Oral Dosing,[11],BLQ (BLQ: Below Lower Limit of Quanification (0.5 ng/mL))
same,Plasma Concentrations of metabolite 2C-B Following Oral Dosing,[12],BLQ (BLQ: Below Lower Limit of Quanification (0.5 ng/mL))
same,Plasma Concentrations of metabolite 2C-B Following Oral Dosing,[13],BLQ (BLQ: Below Lower Limit of Quanification (0.5 ng/mL))
same,Plasma Concentrations of metabolite 2C-B Following Oral Dosing,[14],BLQ (BLQ: Below Lower Limit of Quanification (0.5 ng/mL))
same,Plasma Concentrations of metabolite 2C-B Following Oral Dosing,[15],BLQ (BLQ: Below Lower Limit of Quanification (0.5 ng/mL))
same,Plasma Concentrations of metabolite 2C-B Following Oral Dosing,[16],BLQ (BLQ: Below Lower Limit of Quanification (0.5 ng/mL))
